According to US20210068395A1, “METHODS OF APPLYING ONE OR MORE CERTAIN HETEROARYL-1,2,4-TRIAZOLE AND HETEROARYL-TETRAZOLE COMPOUNDS TO CONTROL DAMAGE ON PLANTS, PROPAGATION MATERIAL THEREOF, AND PLANT DERIVED PRODUCTS” (SYNGENTA CROP PROTECTION AG, priority 2018, published 2021):
Like-named read-outs stand apart in the source and are kept apart here.

Tests used:
Format in all cases: in vivo
[1] = test system: Diabrotica balteata (corn root worm); assay: Diabrotica balteata (corn root worm), sprayed maize sprouts; settings: 96 h, read-out: control in at least one of the two categories (mortality or growth inhibition)
Description: Maize sprouts placed onto an agar layer in 24-well microtiter plates were treated with aqueous test solutions prepared from 10,000 ppm DMSO stock solutions by spraying. After drying, the plates were infested with L2 larvae (6 to 8 per well). The samples were assessed for mortality and growth inhibition in comparison to untreated samples 4 days after infestation.

[2] = test system: Plutella xylostella (Diamond Back Moth); assay: Plutella xylostella feeding/contact activity, 24-well artificial diet; settings: 192 h, read-out: control in at least one of the two categories (mortality or growth inhibition)
Description: 24-well microtiter plates with artificial diet were treated with aqueous test solutions prepared from 10,000 ppm DMSO stock solutions by pipetting. After drying, Plutella eggs were pipetted through a plastic stencil onto a gel blotting paper and the plate was closed with it. The samples were assessed for mortality and growth inhibition in comparison to untreated samples 8 days after infestation.

[3] = test system: Spodoptera littoralis (Egyptian Cotton Leaf Worm); assay: Spodoptera littoralis feeding/contact activity; settings: foliar, 72 h, read-out: control in at least one of the three categories (mortality or growth inhibition or anti-feeding)
Description: Cotton leaf discs were placed onto agar in 24-well microtiter plates and sprayed with aqueous test solutions prepared from 10,000 ppm DMSO stock solutions. After drying the leaf discs were infested with five L1 larvae. The samples were assessed for mortality, anti-feeding and growth inhibition 3 days after infestation.

[4] = test system: Plutella xylostella (Diamond Back Moth); assay: Plutella xylostella feeding/contact activity, 96-well artificial diet; settings: 216 h, application rate 500 ppm, 9 days after infestation
Description: 1, 2, 3, 4, 17, 19, 23, 26, 39, 41, 42, 54, 55, 56 Plutella xylostella (Diamond Back Moth):Feeding/Contact Activity 96-well microtiter plates containing artificial diet were treated with aqueous test solutions, prepared from 10,000 ppm DMSO stock solutions, by a liquid handling robot. After drying, eggs (˜30 per well) were infested onto a netted lid which was suspended above the diet. The eggs hatch and L1 larvae move down to the diet. The samples were assessed for mortality 9 days after infestation.

[5] = test system: Thrips tabaci (Onion thrips); assay: Thrips tabaci feeding/contact activity; settings: foliar, 144 h, read-out: control in at least one of the two categories (mortality or anti-feeding)
Description: Sunflower leaf discs were placed on agar in 24-well microtiter plates and sprayed with aqueous test solutions prepared from 10,000 ppm DMSO stock solutions. After drying the leaf discs were infested with a thrips population of mixed ages. The samples were assessed for mortality, and anti-feeding 6 days after infestation.

[6] = test system: Euschistus heros (Neotropical Brown Stink Bug); assay: Euschistus heros feeding/contact activity; settings: 120 h, read-out: control in at least one of the two categories (mortality or growth inhibition)
Description: Soybean leaves on agar in 24-well microtiter plates were sprayed with aqueous test solutions prepared from 10,000 ppm DMSO stock solutions. After drying the leaves were infested with N2 nymphs. The samples were assessed for mortality and growth inhibition 5 days after infestation.

[7] = test system: Myzus persicae (Green Peach Aphid); assay: Myzus persicae feeding activity (sucrose solution, Parafilm); settings: 120 h, test rate 12.5 ppm, in sucrose solution, 5 days after infestation
Description: Test compounds prepared from 10,000 ppm DMSO stock solutions were applied by pipette into 24-well microtiter plates and mixed with sucrose solution. The plates were closed with a stretched Parafilm. A plastic stencil with 24 holes was placed onto the plate and infested pea seedlings were placed directly on the Parafilm. The infested plate was closed with a gel blotting paper and another plastic stencil and then turned upside down. The samples were assessed for mortality 5 days after infestation.

[8] = test system: Spodoptera littoralis (Egyptian Cotton Leaf Worm); assay: Spodoptera littoralis systemic activity (lettuce); settings: 144 h, test rate 12.5 ppm, root uptake in lettuce, 6 days after infestation, read-out: control in at least one of the three categories (mortality or growth inhibition or anti-feeding)
Text: Test compounds were applied by pipette prepared from 10,000 ppm DMSO stock solutions into 24-well plates and mixed with agar. Lettuce seeds were placed onto the agar and the multi well plate was closed by another plate which contained also agar. After 7 days the compound was absorbed by the roots and the lettuce grew into the lid plate. The lettuce leaves were then cut off into the lid plate. Spodoptera eggs were pipetted through a plastic stencil onto a humid gel blotting paper and the lid plate was closed with it. The samples were assessed for mortality, anti-feeding and growth inhibition 6 days after infestation.

[9] = test system: Myzus persicae (Green Peach Aphid); assay: Myzus persicae systemic activity; settings: 144 h, test rate 24 ppm, roots of pea seedlings in test solution, 6 days
Description: Roots of pea seedlings infested with an aphid population of mixed ages were placed directly into aqueous test solutions prepared from 10,000 DMSO stock solutions. The samples were assessed for mortality 6 days after placing seedlings into test solutions.

[10] = test system: Myzus persicae (Green Peach Aphid); assay: Myzus persicae feeding/contact activity; settings: foliar, 144 h, application rate 200 ppm, sunflower leaf discs sprayed, 6 days after infestation
Description: Sunflower leaf discs were placed onto agar in a 24-well microtiter plate and sprayed with aqueous test solutions prepared from 10,000 ppm DMSO stock solutions. After drying, the leaf discs were infested with an aphid population of mixed ages. The samples were assessed for mortality 6 days after infestation.

[11] = application rate 200 ppm, L2 larvae, 4 days after infestation
[12] = application rate 200 ppm, 24-well artificial diet, 8 days after infestation
[13] = application rate 200 ppm, L1 larvae on cotton leaf discs, 3 days after infestation
[14] = application rate 200 ppm, sunflower leaf discs, 6 days after infestation
[15] = application rate 200 ppm, N2 nymphs on soybean leaves, 5 days after infestation

C[C@@H](c1ncnn1-c1ncccn1)N(C)C(=O)c1cc(C(F)(F)F)cc(C(F)(F)F)c1 [Compound 6]
≥ 80%: percent control (mortality or growth inhibition) at 200 ppm [1, 11] | percent control (mortality or growth inhibition) at 200 ppm [2, 12] | percent control (mortality, anti-feedant effect or growth inhibition) at 200 ppm [3, 13]

COC(=O)c1nc(C(C)NC(=O)c2cc(C(F)(F)F)cc(C(F)(F)F)c2)n(-c2ncccn2)n1 (stereo not shown) [Compound 7]
≥ 80%: percent control (mortality or growth inhibition) at 200 ppm [1, 11] | mortality at 500 ppm [4] | percent control (mortality or growth inhibition) at 200 ppm [2, 12] | percent control (mortality, anti-feedant effect or growth inhibition) at 200 ppm [3, 13] | percent control (mortality, anti-feedant effect or growth inhibition) at 200 ppm [5, 14]

CCOC(OCC)c1nc(C(C)NC(=O)c2cc(C(F)(F)F)cc(C(F)(F)F)c2)n(-c2ncccn2)n1 (stereo not shown) [Compound 8]
≥ 80%: percent control (mortality or growth inhibition) at 200 ppm [1, 11] | mortality at 500 ppm [4] | percent control (mortality or growth inhibition) at 200 ppm [2, 12]

CC(c1ncnn1-c1ncccn1)N(C[Si](C)(C)C)C(=O)c1cc(C(F)(F)F)cc(C(F)(F)F)c1 (stereo not shown) [Compound 16]
≥ 80%: percent control (mortality or growth inhibition) at 200 ppm [1] | percent control (mortality or growth inhibition) at 200 ppm ([6]; in Glycine max) | percent control (mortality or growth inhibition) at 200 ppm [2] | percent control (mortality, anti-feedant effect or growth inhibition) at 200 ppm [3] | percent control (mortality, anti-feedant effect or growth inhibition) at 200 ppm [5]

CC(c1ncnn1-c1ncccn1)N(CC1CC1)C(=O)c1cc(Br)cc(C(F)(F)F)c1 (stereo not shown) [Compound 19]
≥ 80%: percent control (mortality or growth inhibition) at 200 ppm [1, 11] | percent control (mortality or growth inhibition) at 200 ppm [6, 15] | mortality at 12.5 ppm [7] | mortality at 500 ppm [4] | percent control (mortality or growth inhibition) at 200 ppm [2, 12] | percent control (mortality, anti-feedant effect or growth inhibition) at 200 ppm [3, 13]

CC(c1ncnn1-c1ncccn1)N(CC1CC1)C(=O)c1cc(Cl)cc(C(F)(F)F)c1 (stereo not shown) [Compound 23]
≥ 80%: percent control (mortality or growth inhibition) at 200 ppm [1, 11] | mortality at 12.5 ppm [7] | mortality at 500 ppm [4] | percent control (mortality or growth inhibition) at 200 ppm [2, 12] | percent control (mortality, anti-feedant effect or growth inhibition) at 200 ppm [3, 13] | percent control (mortality, anti-feedant effect or growth inhibition) at 12.5 ppm [8]

COc1cnc(-n2ncnc2C(C)N(CC2CC2)C(=O)c2cc(C(F)(F)F)cc(C(F)(F)F)c2)nc1 (stereo not shown) [Compound 24]
≥ 80%: percent control (mortality or growth inhibition) at 200 ppm [1, 11] | percent control (mortality or growth inhibition) at 200 ppm [2, 12]

CC(c1ncnn1-c1ncccn1)N(CC1CC1)C(=O)c1cccc(C#N)c1 (stereo not shown) [Compound 25]
≥ 80%: percent control (mortality or growth inhibition) at 200 ppm [1, 11]

CC(c1ncnn1-c1ncccn1)N(CC1CC1)C(=O)c1cc(C(F)(F)F)nc(C(F)(F)F)c1 (stereo not shown) [Compound 41]
≥ 80%: percent control (mortality or growth inhibition) at 200 ppm [1, 11] | percent control (mortality or growth inhibition) at 200 ppm [6, 15] | mortality at 12.5 ppm [7] | mortality at 500 ppm [4] | percent control (mortality or growth inhibition) at 200 ppm [2, 12] | percent control (mortality, anti-feedant effect or growth inhibition) at 200 ppm [3, 13] | percent control (mortality, anti-feedant effect or growth inhibition) at 200 ppm [5, 14]

CC(c1ncnn1-c1ncccn1)N(CC1CC1)C(=O)c1cc(C#N)cc(C(F)(F)F)c1 (stereo not shown) [Compound 42]
≥ 80%: percent control (mortality or growth inhibition) at 200 ppm [1, 11] | percent control (mortality or growth inhibition) at 200 ppm [6, 15] | mortality at 24 ppm [9] | mortality at 12.5 ppm [7] | mortality at 500 ppm [4] | percent control (mortality or growth inhibition) at 200 ppm [2, 12] | percent control (mortality, anti-feedant effect or growth inhibition) at 200 ppm [3, 13] | percent control (mortality, anti-feedant effect or growth inhibition) at 200 ppm [5, 14]

CC(c1ncnn1-c1ncccn1)N(CC1CC1)C(=O)c1cncc(C(F)(F)F)c1 (stereo not shown) [Compound 47]
≥ 80%: percent control (mortality or growth inhibition) at 200 ppm [1, 11] | percent control (mortality or growth inhibition) at 200 ppm [6, 15] | mortality at 500 ppm [4]

CC(c1ncnn1-c1ncccn1)N(CCCF)C(=O)c1cc(C(F)(F)F)cc(C(F)(F)F)c1 (stereo not shown) [Compound 54]
≥ 80%: percent control (mortality or growth inhibition) at 200 ppm [1, 11] | mortality at 200 ppm [10] | mortality at 12.5 ppm [7] | percent control (mortality or growth inhibition) at 200 ppm [2, 12] | percent control (mortality, anti-feedant effect or growth inhibition) at 200 ppm [3, 13]

CC(c1ncnn1-c1ncccn1)N(CCC(F)(F)F)C(=O)c1cc(C(F)(F)F)cc(C(F)(F)F)c1 (stereo not shown) [Compound 55]
≥ 80%: percent control (mortality or growth inhibition) at 200 ppm [1, 11] | percent control (mortality or growth inhibition) at 200 ppm [6, 15] | mortality at 200 ppm [10] | mortality at 12.5 ppm [7] | mortality at 500 ppm [4] | percent control (mortality or growth inhibition) at 200 ppm [2, 12] | percent control (mortality, anti-feedant effect or growth inhibition) at 200 ppm [3, 13] | percent control (mortality, anti-feedant effect or growth inhibition) at 12.5 ppm [8] | percent control (mortality, anti-feedant effect or growth inhibition) at 200 ppm [5, 14]

CC(c1ncnn1-c1ncccn1)N(CCF)C(=O)c1cc(C(F)(F)F)cc(C(F)(F)F)c1 (stereo not shown) [Compound 56]
≥ 80%: percent control (mortality or growth inhibition) at 200 ppm [1, 11] | percent control (mortality or growth inhibition) at 200 ppm [6, 15] | mortality at 200 ppm [10] | mortality at 24 ppm [9] | mortality at 12.5 ppm [7] | mortality at 500 ppm [4] | percent control (mortality or growth inhibition) at 200 ppm [2, 12] | percent control (mortality, anti-feedant effect or growth inhibition) at 200 ppm [3, 13] | percent control (mortality, anti-feedant effect or growth inhibition) at 12.5 ppm [8]

CC(c1ncnn1-c1ccccn1)N(CC1COC1)C(=O)c1cc(C(F)(F)F)cc(C(F)(F)F)c1 (stereo not shown) [Compound 62]
≥ 80%: percent control (mortality or growth inhibition) at 200 ppm [1, 11]
